The source of these data is ChEMBL document CHEMBL1152007, “The synthesis and CCK receptor affinities of selected carboyxlic acid mimics of CI-988 - a potent and selective CCK-B antagonist” (Bioorg Med Chem Lett, 1992).

A short description of data set [1]: Dissociation constant, pKa was determined. The data set is classed as physicochemical.
For data set [2], the target named is T1, Gastrin/cholecystokinin type B receptor (Mus musculus, UniProt P56481).
T1 sequence (P56481 whole entry): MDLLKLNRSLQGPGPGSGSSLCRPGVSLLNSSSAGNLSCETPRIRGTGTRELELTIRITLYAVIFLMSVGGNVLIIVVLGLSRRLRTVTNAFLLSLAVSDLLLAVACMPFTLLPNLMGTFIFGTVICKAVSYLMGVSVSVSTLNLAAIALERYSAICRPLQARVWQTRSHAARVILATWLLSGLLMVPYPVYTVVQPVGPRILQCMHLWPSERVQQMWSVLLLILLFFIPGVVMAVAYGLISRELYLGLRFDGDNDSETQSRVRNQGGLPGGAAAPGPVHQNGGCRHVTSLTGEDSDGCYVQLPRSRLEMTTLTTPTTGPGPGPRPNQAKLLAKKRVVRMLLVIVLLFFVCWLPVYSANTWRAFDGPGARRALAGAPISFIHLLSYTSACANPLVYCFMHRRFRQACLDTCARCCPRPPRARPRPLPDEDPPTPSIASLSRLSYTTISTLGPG
The data set can be described thus: The concentration (nM) producing half-maximal inhibition of specific binding of [1251] Bolton Hunter CCK-8 to CCK receptors in the mouse cerebral cortex (CCK-B);value ranges from 62 to 98. The data set is classed as tissue-based.

The target of data set [3] is T2, Cholecystokinin receptor type A (Rattus norvegicus, UniProt P30551).
T2 sequence (P30551 whole entry): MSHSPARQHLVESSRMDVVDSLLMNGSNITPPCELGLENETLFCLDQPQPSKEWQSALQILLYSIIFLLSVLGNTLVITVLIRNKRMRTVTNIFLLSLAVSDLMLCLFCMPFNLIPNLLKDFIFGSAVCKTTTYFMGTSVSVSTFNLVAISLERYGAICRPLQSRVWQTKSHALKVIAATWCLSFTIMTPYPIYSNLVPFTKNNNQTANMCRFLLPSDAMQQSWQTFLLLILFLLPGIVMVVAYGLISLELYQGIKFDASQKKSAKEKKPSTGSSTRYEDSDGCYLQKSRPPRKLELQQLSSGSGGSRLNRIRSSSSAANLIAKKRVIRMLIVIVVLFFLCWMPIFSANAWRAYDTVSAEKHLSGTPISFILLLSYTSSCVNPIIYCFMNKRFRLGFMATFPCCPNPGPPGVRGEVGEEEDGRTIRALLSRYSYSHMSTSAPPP
The data set can be described thus: The concentration (nM) producing half-maximal inhibition of specific binding of [1251] Bolton Hunter CCK-8 to CCK receptors in the rat pancreas (CCK-A);value ranges from 620 to 770.

Data set [4] deals with T1, Gastrin/cholecystokinin type B receptor. The data set can be described thus: The concentration (nM) producing half-maximal inhibition of specific binding of [1251] Bolton Hunter CCK-8 to CCK receptors in the mouse cerebral cortex (CCK-B);value ranges from 3.0 to 8.1. The format is tissue-based.
For data set [5], the target named is T2, Cholecystokinin receptor type A. The data set can be described thus: The concentration (nM) producing half-maximal inhibition of specific binding of [1251] Bolton Hunter CCK-8 to CCK receptors in the rat pancreas (CCK-A); value ranges from 1000 to 1100.
The target in data set [6] is T1, Gastrin/cholecystokinin type B receptor. Description: The concentration (nM) producing half-maximal inhibition of specific binding of [1251] Bolton Hunter CCK-8 to CCK receptors in the mouse cerebral cortex (CCK-B);value ranges from 63 to 170. The format is tissue-based.
Data set [7] deals with T2, Cholecystokinin receptor type A. The data set can be described thus: The concentration (nM) producing half-maximal inhibition of specific binding of [1251] Bolton Hunter CCK-8 to CCK receptors in the rat pancreas (CCK-A); value ranges from 680 to 970.
Data set [8] in a line: Dissociation constant, pKa was determined; experiment 1. The data set is classed as physicochemical.
A short description of data set [9]: Dissociation constant, pKa was determined; experiment 2. The format is physicochemical.
Data set [10] deals with T1, Gastrin/cholecystokinin type B receptor. Description: The concentration (nM) producing half-maximal inhibition of specific binding of [1251] Bolton Hunter CCK-8 to CCK receptors in the mouse cerebral cortex (CCK-B);value ranges from 22 to 24. The format is tissue-based.
Data set [11] addresses T2, Cholecystokinin receptor type A. The data set can be described thus: The concentration (nM) producing half-maximal inhibition of specific binding of [1251] Bolton Hunter CCK-8 to CCK receptors in the rat pancreas (CCK-A);value ranges from 2300 to 3500.
Data set [12] concerns the target T1, Gastrin/cholecystokinin type B receptor. The data set can be described thus: The concentration (nM) producing half-maximal inhibition of specific binding of [1251] Bolton Hunter CCK-8 to CCK receptors in the mouse cerebral cortex (CCK-B);value ranges from 8.6 to 32. The format is tissue-based.
Data set [13] concerns the target T2, Cholecystokinin receptor type A. Description: The concentration (nM) producing half-maximal inhibition of specific binding of [1251] Bolton Hunter CCK-8 to CCK receptors in the rat pancreas (CCK-A);value ranges from 900 to 1900.
For data set [14], the target named is T1, Gastrin/cholecystokinin type B receptor. The data set can be described thus: The concentration (nM) producing half-maximal inhibition of specific binding of [1251] Bolton Hunter CCK-8 to CCK receptors in the mouse cerebral cortex (CCK-B);value ranges from 5.3 to 7.7. The format is tissue-based.
Data set [15] has as its target T2, Cholecystokinin receptor type A. Description: The concentration (nM) producing half-maximal inhibition of specific binding of [1251] Bolton Hunter CCK-8 to CCK receptors in the rat pancreas (CCK-A);value ranges from 1100 to 1500.

In turn, `C[C@@](Cc1c[nH]c2ccccc12)(NC(=O)OC1C2CC3CC(C2)CC1C3)C(=O)NC[C@H](NC(=O)CCC(=O)O)c1ccccc1` (stereo not given in full) had a pKa in data set [1] of 5.6.
For `CC(Cc1c[nH]c2ccccc12)(NC(=O)OC1C2CC3CC(C2)CC1C3)C(=O)NC[C@H](NC(=O)CCNS(=O)(=O)C(F)(F)F)c1ccccc1` (single isomer, unassigned), the pKa in data set [1] was 7.9. The IC50 stood at 77 nM in data set [2] and 680 nM in data set [3].
Compound `CC(Cc1c[nH]c2ccccc12)(NC(=O)OC1C2CC3CC(C2)CC1C3)C(=O)NC[C@H](NC(=O)CCc1nnn[nH]1)c1ccccc1` (single isomer, unassigned) came in with a pKa in data set [1] of 5.4. Besides, the figures for the IC50 in data set [4] and in data set [5] were 5.6 nM and 1070 nM, respectively.
In the case of `CC(Cc1c[nH]c2ccccc12)(NC(=O)OC1C2CC3CC(C2)CC1C3)C(=O)NC[C@H](NC(=O)CCNC(=O)C(F)(F)F)c1ccccc1` (single isomer, unassigned), the pKa in data set [1] is > 9.5. Also, the values for the IC50 in [6] and in [7] were 89 nM and 800 nM, respectively.
For the compound `CC(Cc1c[nH]c2ccccc12)(NC(=O)OC1C2CC3CC(C2)CC1C3)C(=O)NC[C@H](NC(=O)CCP(=O)(O)O)c1ccccc1` (single isomer, unassigned), the pKa in data set [8] came to 3.4; in data set [9] it was 7.8. The IC50 amounted to 23 nM in [10] and 2700 nM in data set [11].
`CC(Cc1c[nH]c2ccccc12)(NC(=O)OC1C2CC3CC(C2)CC1C3)C(=O)NC[C@H](NC(=O)CCC(=O)NO)c1ccccc1` (single isomer, unassigned): in [1], the pKa was > 9.5. Also, the IC50 in data set [12] is 14 nM; in data set [13], 1800 nM.
The compound `CC(Cc1c[nH]c2ccccc12)(NC(=O)OC1C2CC3CC(C2)CC1C3)C(=O)NC[C@H](NC(=O)CCC(=O)Nc1nn[nH]n1)c1ccccc1` (single isomer, unassigned) yielded a pKa in [1] of 5.2. For the same compound, the IC50 is 6.3 nM in data set [14] and 1200 nM in [15].
